The results in this text go back to patent US11524966B1 (Valo Early Discovery, Inc., priority 2017, dated 2022).

For this test, the target named is T1, USP25 (USP25-His6, Boston Biochem E-546) (Homo sapiens, UniProt Q9UHP3).
T1 construct: His6; purchased Boston Biochem E-546
T1 sequence (Q9UHP3 1-1055): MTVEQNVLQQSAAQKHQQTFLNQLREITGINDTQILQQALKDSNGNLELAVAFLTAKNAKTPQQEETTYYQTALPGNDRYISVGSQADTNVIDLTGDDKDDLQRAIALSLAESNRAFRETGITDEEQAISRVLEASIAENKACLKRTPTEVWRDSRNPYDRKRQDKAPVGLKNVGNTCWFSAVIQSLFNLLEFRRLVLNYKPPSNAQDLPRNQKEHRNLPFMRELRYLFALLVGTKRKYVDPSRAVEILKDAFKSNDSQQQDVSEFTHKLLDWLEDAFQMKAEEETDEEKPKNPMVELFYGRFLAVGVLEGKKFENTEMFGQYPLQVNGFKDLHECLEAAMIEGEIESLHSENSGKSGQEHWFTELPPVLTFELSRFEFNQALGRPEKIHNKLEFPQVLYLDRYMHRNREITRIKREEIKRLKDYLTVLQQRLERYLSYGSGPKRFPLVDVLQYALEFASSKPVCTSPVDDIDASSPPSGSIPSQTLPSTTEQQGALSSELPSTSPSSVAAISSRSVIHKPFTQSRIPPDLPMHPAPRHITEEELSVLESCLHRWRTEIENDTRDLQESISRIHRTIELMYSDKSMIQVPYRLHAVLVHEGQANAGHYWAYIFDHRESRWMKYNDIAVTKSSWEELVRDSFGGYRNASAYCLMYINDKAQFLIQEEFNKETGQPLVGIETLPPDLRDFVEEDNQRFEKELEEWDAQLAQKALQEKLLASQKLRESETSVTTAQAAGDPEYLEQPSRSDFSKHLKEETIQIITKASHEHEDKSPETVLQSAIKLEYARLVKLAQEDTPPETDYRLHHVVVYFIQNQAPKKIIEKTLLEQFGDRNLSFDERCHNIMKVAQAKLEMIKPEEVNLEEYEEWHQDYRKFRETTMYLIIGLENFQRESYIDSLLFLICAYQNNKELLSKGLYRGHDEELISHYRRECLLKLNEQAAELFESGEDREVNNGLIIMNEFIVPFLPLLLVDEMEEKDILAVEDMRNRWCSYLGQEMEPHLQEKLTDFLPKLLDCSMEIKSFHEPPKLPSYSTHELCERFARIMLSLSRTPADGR
Put plainly: Ubiquitin-Rhodamine 110 Assay for USP25 Activity, Example A-2. In kind it is biochemical. Particulars: Ubiquitin-Rhodamine 110 assay, Example A-2; read-out: USP25 A-2 IC50 range. The procedure, abridged: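 Steps: compound dilutions (top 25 μM, 3-fold, 10 points) were preincubated 30 min with 75 pM USP25-His6; 25 nM Ub-Rh110 substrate was added under initial-velocity conditions; after 45 min at room temperature, 10 mM citric acid stopped the reaction before fluorescence reading.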
As for `CO[C@@H]1CN(c2cc3c(c(F)c2F)C[C@@H](NC(=O)c2sc4nc(C)ccc4c2N)CO3)C[C@H]1N` [Example 415, 3-amino-N-[(3R)-7-[(3R,4R)-3-amino-4-methoxypyrrolidin-1-yl]-5,6-difluoro-3,4-dihydro-2H-1-benzopyran-3-yl]-6-methylthieno[2,3-b]pyridine-2-carboxamide], the IC50 was 200 to 2000 nM.
For `O=C(N[C@H]1COc2cc(N3CCNCC3)ccc2C1)c1cnn2c(CO)cccc12` [Example 475, 7-(hydroxymethyl)-N-[(3R)-7-(piperazin-1-yl)-3,4-dihydro-2H-1-benzopyran-3-yl]pyrazolo[1,5-a]pyridine-3-carboxamide], the IC50 was over 2000 nM.
With `Cc1ccc2c(N)c(C(=O)N[C@H]3COc4cc(N5CC[C@H](C(=O)O)C5)ccc4C3)sc2n1` [Example 6-3, (S)-1-((R)-3-(3-amino-6-methylthieno[2,3-b]pyridine-2-carboxamido)chroman-7-yl)pyrrolidine-3-carboxylic acid], the IC50 was over 2000 nM.
With `Cc1ccc2c(N)c(C(=O)N[C@H]3COc4cc(N5CCC(F)(F)CC5)ccc4C3)sc2n1` [Example 5-1, (R)-3-amino-N-(7-(4,4-difluoropiperidin-1-yl)chroman-3-yl)-6-methylthieno[2,3-b]pyridine-2-carboxamide], the IC50 was 50 to 200 nM.
The result for `Cc1cnc2c(N)c(C(=O)N[C@@H]3CCc4cc(N5CCCNCC5)ccc4C3)sc2n1` [Example 452, (R)-N-(6-(1,4-diazepan-1-yl)-1,2,3,4-tetrahydronaphthalen-2-yl)-7-amino-3-methylthieno[2,3-b]pyrazine-6-carboxamide] reads over 2000 nM; that for `O=C(N[C@@H]1CCc2c(c(F)cc(N3CC4CCC(C3)N4)c2C(F)F)C1)c1cnc2c(c1)[C@H]1C[C@H]1CN2` (single isomer, unassigned) [Example 362], 200 to 2000 nM; that for `Cc1ccc2c(N)c(C(=O)N[C@H]3COc4cc(N5C[C@@H](N)[C@H](OC(F)(F)F)C5)ccc4C3)sc2n1` (single isomer, unassigned) [Example 3-9], 200 to 2000 nM.
On to `Cc1cnc2c(N)c(C(=O)N[C@H]3CCc4nc(N5C[C@@H](N)C6(COC6)C5)ccc4C3)sc2n1` [Example 366, 7-amino-N-[(6S)-2-[(8S)-8-amino-2-oxa-6-azaspiro[3.4]octan-6-yl]-5,6,7,8-tetrahydroquinolin-6-yl]-3-methylthieno[2,3-b]pyrazine-6-carboxamide], for which the IC50 was over 2000 nM.
Turning to `Cc1ccc2c(N)c(C(=O)N[C@H]3CCc4nc(N5C[C@@H](N)[C@@]6(CCCO6)C5)ccc4C3)sc2n1` [Example 392, 3-amino-N-[(6S)-2-[(5R,9R)-9-amino-1-oxa-7-azaspiro[4.4]nonan-7-yl]-5,6,7,8-tetrahydroquinolin-6-yl]-6-methylthieno[2,3-b]pyridine-2-carboxamide], the IC50 was over 2000 nM.
For `CCn1cc(Cl)c2cc(C(=O)N[C@H]3COc4c(F)c(N5CC6CCC(C5)N6)cc(F)c4C3)nnc21` [Example 355, 5-chloro-N-[(3R)-7-{3,8-diazabicyclo[3.2.1]octan-3-yl}-5,8-difluoro-3,4-dihydro-2H-1-benzopyran-3-yl]-7-ethyl-7H-pyrrolo[2,3-c]pyridazine-3-carboxamide], the IC50 fell in the range of 200 to 2000 nM.
The result for `Cc1ccc2c(N)c(C(=O)N[C@H]3COc4cc(N5C[C@H](N)CC56COC6)ccc4C3)sc2n1` (single isomer, unassigned) [Example 351] reads 1 to 50 nM; that for `O=C(N[C@H]1COc2cc(N3CCNCC3)ccc2C1)c1cnn2ccccc12` [Example 460, (R)-N-(7-(piperazin-1-yl)chroman-3-yl)pyrazolo[1,5-a]pyridine-3-carboxamide], over 2000 nM; that for `Cc1ccc2c(N)c(C(=O)N[C@H]3CCc4nc(N5C[C@H](N)[C@H](C(F)F)C5)ccc4C3)sc2n1` [Example 345, 3-amino-N-[(6S)-2-[(3R,4R)-3-amino-4-(difluoromethyl)pyrrolidin-1-yl]-5,6,7,8-tetrahydroquinolin-6-yl]-6-methylthieno[2,3-b]pyridine-2-carboxamide], 200 to 2000 nM.
For `Cc1cnc2c(N)c(C(=O)N[C@H]3CCc4cc(N5CC(C(=O)O)C5)ccc4C3)sc2n1` [Example 6-4, (S)-1-(6-(7-amino-3-methylthieno[2,3-b]pyrazine-6-carboxamido)-5,6,7,8-tetrahydronaphthalen-2-yl)azetidine-3-carboxylic acid], the IC50 is over 2000 nM.
The result for `CC(=O)Nc1cccc(CNc2ccc(C(=O)N[C@H]3COc4cc(N5CCNCC5)ccc4C3)cn2)c1` [Example 473, (R)-6-((3-acetamidobenzyl)amino)-N-(7-(piperazin-1-yl)chroman-3-yl)nicotinamide] reads over 2000 nM.
Then `Cc1ccc2c(N)c(C(=O)N[C@H]3COc4cc(N5CCN[C@@H](C(F)(F)F)C5)ccc4C3)sc2n1` [Example 3-11, 3-amino-6-methyl-N-((R)-7-((R)-3-(trifluoromethyl)piperazin-1-yl)chroman-3-yl)thieno[2,3-b]pyridine-2-carboxamide], with 200 to 2000 nM.
For `O=C(N[C@H]1CCc2c(c(F)cc(N3CC4CCC(C3)N4)c2C(F)F)C1)c1cnc2c(c1)[C@@H]1C[C@@H]1CN2` (single isomer, unassigned) [Example 359], the IC50 was over 2000 nM.
In the case of `Cc1ccc2c(N)c(C(=O)N[C@H]3COc4cc(N5CC[C@@H](C(=O)O)C5)ccc4C3)sc2n1` [Example 6-2, (R)-1-((R)-3-(3-amino-6-methylthieno[2,3-b]pyridine-2-carboxamido)chroman-7-yl)pyrrolidine-3-carboxylic acid], the IC50 was over 2000 nM.
For the molecule `CN[C@H]1CN(c2ccc3c(c2)OC[C@H](NC(=O)c2sc4nc(C)ccc4c2N)C3)C[C@@H]1O` [Example 350, 3-amino-N-[(3R)-7-[(3S,4S)-3-hydroxy-4-(methylamino)pyrrolidin-1-yl]-3,4-dihydro-2H-1-benzopyran-3-yl]-6-methylthieno[2,3-b]pyridine-2-carboxamide], the IC50 lay in the range of 200 to 2000 nM.
Take `CCc1cccc2c(C(=O)N[C@H]3COc4cc(N5CCNCC5)ccc4C3)cnn12` [Example 474, 7-ethyl-N-[(3R)-7-(piperazin-1-yl)-3,4-dihydro-2H-1-benzopyran-3-yl]pyrazolo[1,5-a]pyridine-3-carboxamide]: the IC50 was in the range of 200 to 2000 nM.
`Cc1ccc2c(N)c(C(=O)N[C@H]3CCc4nc(N5C[C@H](N)[C@]6(CCCO6)C5)ccc4C3)sc2n1` [Example 390, 3-amino-N-[(6S)-2-[(5S,9S)-9-amino-1-oxa-7-azaspiro[4.4]nonan-7-yl]-5,6,7,8-tetrahydroquinolin-6-yl]-6-methylthieno[2,3-b]pyridine-2-carboxamide]: the IC50 was over 2000 nM.
Regarding `Cc1ccc2c(N)c(C(=O)N[C@H]3COc4cc(N5CCN[C@H](C(F)(F)F)C5)ccc4C3)sc2n1` [Example 3-12, 3-amino-6-methyl-N-((R)-7-((S)-3-(trifluoromethyl)piperazin-1-yl)chroman-3-yl)thieno[2,3-b]pyridine-2-carboxamide], the IC50 lay in the range of 200 to 2000 nM.
In the case of `Cc1cnc2c(N)c(C(=O)N[C@H]3CCc4cc(N5CCCNCC5)ccc4C3)sc2n1` [Example 455, (S)-N-(6-(1,4-diazepan-1-yl)-1,2,3,4-tetrahydronaphthalen-2-yl)-7-amino-3-methylthieno[2,3-b]pyrazine-6-carboxamide], the IC50 is 200 to 2000 nM.
